Values joined by “and” are separate entries in the source; they are usually repeats but may differ in a detail not shown here. Equal values may be shown once.
System: genes involved in longevity (Array 1)
Experiment: Custom RT-PCR microarray (Array 1) gene expression in skin fibroblasts, UVB/UVA1
Type: cell-based, human
Method: Seeding of cells: On Day 1, each cell culture was seeded into 6 well cluster dishes at ˜1.5×10^5 cells in 4 mls medium per well. Three wells were seeded per test condition or control.
Experimental phase: On Day 3, wells were washed 1× with 2 mls medium, fed back 2 mls medium without fetal bovine serum and preincubated for 30-60 minutes before challenge with test or control conditions. After the preincubation, medium was aspirated from the wells and 2.5 mls of test or control condition in medium with 1% fetal bovine serum was pipetted into the appropriate wells.
(3) UVA1, UVB exposed and unexposed cells without test condition were used as controls. The experimental phase ended at 24 hours post UV exposure. Cells from each test and control parameter were then prepped for RNA isolation as described below.
UVB/UVA1 exposure: Cells exposed to UV received 200 mJ/cm^2 UVB/1 MED UVA1 using Thermo Oriel solar simulator model SP66923-3056. Cells were exposed from the bottom of the culture dish. The UV dose delivered to the cells was adjusted for interference from the plastic in the culture dish.
Preparation of RNA: The RNA was isolated using the Qiagen RNEasy Plus Mini Kit according to the manufacturer's protocol which can be found on the World Wilde Web at qiagen.com/literature/Defaultaspx?Term=&Language=EN&LiteratureType=4& ProductCategory=10162. The RNA was quantified and examined for purity using the 260/280 nm read method in a μ Quant spectrophotometer before use in the array.
Creation and Performance of a Custom Microarray (“Array 1”): Through the Custom Array design service of Superarray Bioscience Corporation, a 96 well RT-PCR microarray (“Array 1”) was developed to illustrate genetic responses in cells treated as above for specific genes involved in longevity as well as the relevant quality controls. The array was performed in compliance with manufacturer's guidelines and by recommended manufacturer's protocol as can be found on the World Wilde Web at superarray.com/Manual/perarrayplate.pdf
(§1) Custom Microarray Results: The results from the microarrays were determined using the delta CT method which uses comparisons of control genes and threshold cycles of genes of interest to generate relative expression values. The full set of experimental conditions was cross referenced and the data is provided herewith in DATA TABLE 3.
Preparation of RNA: The RNA was isolated using the Qiagen RNEasy Plus Mini Kit according to the manufacturer's protocol which can be found on the World Wide Web at qiagen.com/literature/Default. aspx?Term=&Language=EN&LiteratureType=4&ProductCategory=10162.
The RNA was quantified and examined for purity using the 260/280 nm read method in a μ Quant spectrophotometer before use in the array.
Creation and Performance of the Custom Microarray: Through the Custom Array design service of Superarray Bioscience Corporation, a 96 well RT-PCR Microarray was developed to illustrate genetic responses in cells treated as above for specific genes involved in longevity as well as the relevant quality controls. The array was performed in compliance with manufacturer's guidelines and by recommended manufacturer's protocol as can be found on the World Wide Web at superarray.com/Manual/perarrayplate.pdf.
as §1, with “4.” for “3.”
as §1, with “5. […]” for “3.”

[1] = donor four cell line, UVB, agent 4 hr incubation
[2] = donor four cell line, UVB, agent continuous incubation
[3] = donor three idebenone + UVB 4 hr Incubation
[4] = donor three idebenone + UVB Continuous Incubation
[5] = donor three idebenone + UVB vs. Green tea + UVB 4 hr Incubation
[6] = donor three vs. donor two idebenone + UVB 4 hr Incubation
[7] = donor three vs. donor two idebenone + UVB Continuous Incubation

COC1=C(OC)C(=O)C(CCCCCCCCCCO)=C(C)C1=O [Idebenone, 6-(10-hydroxydecyl)-2,3-dimethoxy-5-methyl-1,4-benzoquin-one]
IFI44 expression [1]: 2.63
NADSYN1 expression [1]: 2.21
NFKB1 expression [1]: 3.24
PARP1 Expression [1]: 4.27
TERT expression [1]: 8.54
IFI44 expression [2]: 2.98
TERT expression [2]: 4.36
TERT expression (donor one cell line, UVB, agent continuous incubation): 8.50
ACE expression fold change [3]: 2.29
ACTB expression fold change [3]: −2.01
APOE expression fold change [3]: −1.32
BAX expression fold change [3]: 1.41
BCL2 expression fold change [3]: 4.13
CASP2 expression fold change [3]: 1.31
CASP9 expression fold change [3]: 2.06
CCL4L1 expression fold change [3]: 9.82
CLK1 expression fold change [3]: 1.41
COX1 expression fold change [3]: −1.11
CREBBP expression fold change [3]: −1.32
CYP19A1 expression fold change [3]: 6.94
DDC expression fold change [3]: 4.74
GAPDH expression fold change [3]: −1.04
GH1 expression fold change [3]: 3.35
HIGX1A fold change [3]: 1.93
HLA-DRA expression fold change [3]: 4.27
HPRT1 expression fold change [3]: 3.47
HSPA1A expression fold change [3]: 1.68
HSPA1B expression fold change [3]: 1.99
HSPA1L expression fold change [3]: −1.42
IFI44 expression fold change [3]: 2.63
IGF1 expression fold change [3]: 4.13
IGF2 expression fold change [3]: −1.24
IL1A expression fold change [3]: 2.54
IL6 expression fold change [3]: 1.27
IL10 expression fold change [3]: 1.46
KRAS expression fold change [3]: 1.27
MAPK14 expression fold change [3]: 1.46
NADSYN1 expression fold change [3]: 2.21
NFKB1 expression fold change [3]: 3.24
NOS2A expression fold change [3]: 16.51
PARP1 expression fold change [3]: 4.27
PARP2 expression fold change [3]: 3.72
PPARG expression fold change [3]: 1.99
PPC fold change [3]: 1.07 and 1.23
PTGS2 expression fold change [3]: 2.63
RTC fold change [3]: 3.13 and 4.74
SHC1 expression fold change [3]: 1.19
SIRT1 expression fold change [3]: 1.41
SOD1 expression fold change [3]: 1.41
SOD2 expression fold change [3]: 1.07
TEP1 expression fold change [3]: 1.23
TERT expression fold change [3]: 8.54
TNF expression fold change [3]: −1.19
TP53 expression fold change [3]: −1.15
ACE expression fold change [4]: 2.34
ACTB expression fold change [4]: −3.93
APOE expression fold change [4]: 1.49
BAX expression fold change [4]: 2.26
BCL2 expression fold change [4]: 7.09
CASP2 expression fold change [4]: 1.09
CASP9 expression fold change [4]: 5.19
CCL4L1 expression fold change [4]: 10.02
CLK1 expression fold change [4]: 1.71
COX1 expression fold change [4]: 1.05
CREBBP expression fold change [4]: −1.21
CYP19A1 expression fold change [4]: 5.56
DDC expression fold change [4]: 4.84
GAPDH expression fold change [4]: −1.83
GH1 expression fold change [4]: 2.18
HIGX1A fold change [4]: 1.71
HLA-DRA expression fold change [4]: 3.93
HPRT1 expression fold change [4]: 1.83
HSPA1A expression fold change [4]: 1.34
HSPA1B expression fold change [4]: 1.71
HSPA1L expression fold change [4]: −5.37
IFI44 expression fold change [4]: 2.98
IGF1 expression fold change [4]: 3.42
IGF2 expression fold change [4]: −1.09
IL1A expression fold change [4]: 1.97
IL6 expression fold change [4]: −1.83
IL10 expression fold change [4]: 1.13
KRAS expression fold change [4]: 1.90
MAPK14 expression fold change [4]: 1.65
NADSYN1 expression fold change [4]: 1.44
NFKB1 expression fold change [4]: 2.34
NOS2A expression fold change [4]: 3.80
PARP1 expression fold change [4]: 1.65
PARP2 expression fold change [4]: 3.42
PPARG expression fold change [4]: 3.19
PPC fold change [4]: 1.25 and 1.21
PTGS2 expression fold change [4]: 1.83
SHC1 expression fold change [4]: −1.49
SIRT1 expression fold change [4]: 1.77
SOD1 expression fold change [4]: −1.71
SOD2 expression fold change [4]: 1.17
TEP1 expression fold change [4]: 1.13
TERT expression fold change [4]: 4.36
TNF expression fold change [4]: −1.09
TP53 expression fold change [4]: 1.21
ACE expression fold change [5]: −1.11
ACTB expression fold change [5]: −1.57
APOE expression fold change [5]: 1.41
BAX expression fold change [5]: −2.23
BCL2 expression fold change [5]: −1.15
CASP2 expression fold change [5]: −2.47
CASP9 expression fold change [5]: −1.94
CCL4L1 expression fold change [5]: 9.48
CLK1 expression fold change [5]: −1.11
COX1 expression fold change [5]: −1.81
CREBBP expression fold change [5]: −1.00
CYP19A1 expression fold change [5]: 9.48
DDC expression fold change [5]: 42.08
GAPDH expression fold change [5]: −1.57
GH1 expression fold change [5]: 16.51
HIGX1A fold change [5]: 17.09
HLA-DRA expression fold change [5]: 18.96
HPRT1 expression fold change [5]: 1.41
HSPA1A expression fold change [5]: −1.87
HSPA1B expression fold change [5]: −2.08
HSPA1L expression fold change [5]: 1.80
IFI44 expression fold change [5]: −1.28
IGF1 expression fold change [5]: 8.85
IGF2 expression fold change [5]: −1.15
IL1A expression fold change [5]: 7.70
IL6 expression fold change [5]: −1.04
IL10 expression fold change [5]: 4.74
KRAS expression fold change [5]: −1.69
MAPK14 expression fold change [5]: −1.63
NADSYN1 expression fold change [5]: −1.63
NFKB1 expression fold change [5]: −1.04
NOS2A expression fold change [5]: 34.18
PARP1 expression fold change [5]: −1.57
PARP2 expression fold change [5]: 7.44
PPARG expression fold change [5]: 1.74
PTGS2 expression fold change [5]: 2.14
SHC1 expression fold change [5]: −1.11
SIRT1 expression fold change [5]: −1.15
SOD1 expression fold change [5]: −1.32
SOD2 expression fold change [5]: −1.24
TEP1 expression fold change [5]: −1.00
TERT expression fold change [5]: 7.97
TNF expression fold change [5]: 7.44
TP53 expression fold change [5]: −1.32
ACE expression fold change [6]: 1.16
ACTB expression fold change [6]: 1.43
APOE expression fold change [6]: −1.06
BAX expression fold change [6]: 1.95
BCL2 expression fold change [6]: 1.76
CASP2 expression fold change [6]: 1.33
CASP9 expression fold change [6]: 1.58
CCL4L1 expression fold change [6]: 1.08
CLK1 expression fold change [6]: −1.22
COX1 expression fold change [6]: 1.12
CREBBP expression fold change [6]: 1.70
CYP19A1 expression fold change [6]: 1.01
DDC expression fold change [6]: 1.08
GAPDH expression fold change [6]: 1.16
GH1 expression fold change [6]: −1.06
HIGX1A fold change [6]: −1.50
HLA-DRA expression fold change [6]: 1.38
HPRT1 expression fold change [6]: 1.38
HSPA1A expression fold change [6]: 2.16
HSPA1B expression fold change [6]: 2.32
HSPA1L expression fold change [6]: −1.14
IFI44 expression fold change [6]: 1.53
IGF1 expression fold change [6]: −1.79
IGF2 expression fold change [6]: −1.03
IL1A expression fold change [6]: −1.40
IL6 expression fold change [6]: −6.01
IL10 expression fold change [6]: 1.76
KRAS expression fold change [6]: 1.76
MAPK14 expression fold change [6]: 1.48
NADSYN1 expression fold change [6]: 1.08
NFKB1 expression fold change [6]: 1.01
NOS2A expression fold change [6]: −1.56
PARP1 expression fold change [6]: 2.32
PARP2 expression fold change [6]: 1.16
PPARG expression fold change [6]: 1.29
PTGS2 expression fold change [6]: 2.95
SHC1 expression fold change [6]: 1.20
SIRT1 expression fold change [6]: 1.53
SOD1 expression fold change [6]: 1.24
SOD2 expression fold change [6]: −1.35
TEP1 expression fold change [6]: 1.76
TERT expression fold change [6]: −1.14
TNF expression fold change [6]: 1.95
TP53 expression fold change [6]: −1.31
ACE expression fold change [7]: 1.40
ACTB expression fold change [7]: 4.88
APOE expression fold change [7]: −2.48
BAX expression fold change [7]: −1.64
BCL2 expression fold change [7]: −1.53
CASP2 expression fold change [7]: −1.38
CASP9 expression fold change [7]: −1.88
CCL4L1 expression fold change [7]: −2.09
CLK1 expression fold change [7]: −1.04
COX1 expression fold change [7]: −2.32
CREBBP expression fold change [7]: 1.14
CYP19A1 expression fold change [7]: −2.48
DDC expression fold change [7]: −1.58
GAPDH expression fold change [7]: 2.13
GH1 expression fold change [7]: 1.40
HIGX1A fold change [7]: −2.16
HLA-DRA expression fold change [7]: 1.31
HPRT1 expression fold change [7]: 2.20
